Assay results taken from PMC6278656, “Synthesis and Biological Evaluation of Phaeosphaeride A Derivatives as Antitumor Agents” (Molecules, 2018).

Experiments:
Format in all cases: cell-based
[1] = test system: human multiple myeloma NCI-H929 cells; experiment: MTT cytotoxicity assay, NCI-H929; settings: Homo sapiens, MTT, 72 h, n = 3, ± SD, read-out: Suspension Cell Cultures, IC50 NCI-Н929
Protocol: (§1) All newly synthesized PPA derivatives 1–8 were evaluated for their anti-proliferative activity against human breast cancer MCF-7, human prostate adenocarcinoma PC-3, human colorectal cancer HCT-116, human lung cancer A549, human chronic myelogenous leukemia K562, human acute monocytic leukemia THP-1, human multiple myeloma RPMI8226, human acute T-cell leukemia Jurkat, human multiple myeloma NCI-H929, and human embryonic fibroblasts HEF cell lines by MTT assays. All cells were incubated with different concentrations of PPA derivatives for 72 h, with etoposide and PPA used as reference compounds. The anticancer activity of the tested compounds was described as the concentration of drug inhibiting 50% cell growth IC50 (Table 1 and Table 2).
(§2) ^1H-NMR spectra were acquired on an AVANCE III 400 MHz NMR spectrometer (Bruker, Rheinstetten, Germany) in CDCl3. Optical rotations were acquired on a Polaar 3005 Polarimeter (Optical Activity, Huntingdon, Great Britain) using a 2.5 cm cell with a Na 589 nm filter and the concentration of samples was denoted as c. Mass spectra data were acquired on a TSQ Quantum Access Max Mass spectrometer (Thermo Fisher Scientific, Waltham, MA, USA). High-resolution mass spectra (HRMS) were acquired on a LTQ Orbitrap Velos spectrometer (Thermo Scientific) and on a Bruker MicrOTOF. FTIR spectra were acquired on an IR Affinity-1 spectrometer (Shimadzu, Thermo Scientific). Organic solvents used were dried by standard methods when necessary. Commercially available reagents were used without further purification. All reactions were monitored by TLC with silica gel coated plates (EMD/Merck KGaA, Darmstadt, Germany), with visualization by UV light and by charring with 0.1% ninhydrin in EtOH. Column chromatography was performed using Merck 60 Å 70–230 mesh silica gel. The optical density was determined using a Multiskan FC spectrophotometer (Thermo Scientific) at a wavelength of 540 nm when using the MTT assay.
(§3) MCF-7 (breast cancer), PC-3 (prostate adenocarcinoma), HCT-116 (colorectal cancer cell), A549 (lung cancer), K562 (chronic myelogenous leukemia), THP-1 (acute monocytic leukemia), and RPMI8226 (multiple myeloma), Jurkat (acute T-cell leukemia), HEF (human embryonic fibroblasts) was purchased from the Russian Academy of Sciences Cells Bank (Institute of Cytology of the Russian Academy of Sciences, Saint Petersburg, Russian Federation). Multiple myeloma cell line NCI-H929 was purchased from ATCC (USA). The MCF-7, A549 and HEF (human embryonic fibroblasts) were cultured in DMEM medium. Other cell lines were cultured in RPMI1640 medium, (PanEco, Russia) supplemented with 10% fetal bovine serum (GE Healthcare LifeSciences, São Paulo, Brazil), and gentamicin at a concentration of 40 μg/mL and cultured at 37 °C in a humidified atmosphere containing 5% CO2. All experiments were performed with cells at passages 3 to 7 in the logarithmic phase of growth.
(§4) Cells were seeded into 96-well plates of 5 × 10^3 for adhesive cultures and 20 × 10^3 for suspension cultures per well in 90 μL and 135 μL of culture medium, respectively. The test substances were dissolved in DMSO to a concentration of 1 × 10^−2 M. For subsequent dilution of the substances, a serum-free culture medium was used as the diluent. Final concentration of DMSO in wells was no more than 1%. […] Substances were added to the cells in 3–4 replicates after 24 h for adhesive cultures and immediately for suspension cultures. 10–15 μL of serum-free medium was added to the control wells with non-exposed cells. Cells were cultured for 72 h at 37 °C in an atmosphere of 5% CO2.

[2] = test system: human breast cancer MCF-7 cells; experiment: MTT cytotoxicity assay, MCF-7; settings: MCF7, 72 h, n = 3, ± SD, read-out: Adhesive Cell Cultures, IC50 MCF-7
Protocol: as §1, §2, §3, §4

[3] = test system: human acute T-cell leukemia Jurkat cells; experiment: MTT cytotoxicity assay, Jurkat; settings: Homo sapiens, MTT, 72 h, n = 3, ± SD, read-out: Suspension Cell Cultures, IC50 Jurkat
Protocol: as §1, §2, §3, §4

[4] = test system: human colorectal cancer HCT-116 cells; experiment: MTT cytotoxicity assay, HCT-116; settings: Homo sapiens, MTT, 72 h, n = 3, ± SD, read-out: Adhesive Cell Cultures, IC50 HCT-116
Protocol: as §1, §2, §3, §4

[5] = test system: human lung cancer A549 cells; experiment: MTT cytotoxicity assay, A549; settings: 72 h, n = 3, ± SD, read-out: Adhesive Cell Cultures, IC50 A549
Protocol: as §1, §2, §3, §4

[6] = test system: human multiple myeloma RPMI8226 cells; experiment: MTT cytotoxicity assay, RPMI8226; settings: Homo sapiens, RPMI-8226; MTT, 72 h, n = 3, ± SD; read-out: Suspension Cell Cultures, IC50 RPMI8228
Protocol: as §1, §2, §3, §4

[7] = test system: human chronic myelogenous leukemia K562 cells; experiment: MTT cytotoxicity assay, K562; settings: Homo sapiens, MTT, 72 h, n = 3, ± SD, read-out: Suspension Cell Cultures, IC50 К562
Protocol: as §1, §2, §3, §4

[8] = test system: human acute monocytic leukemia THP-1 cells; experiment: MTT cytotoxicity assay, THP-1; settings: 72 h, n = 3, ± SD, read-out: Suspension Cell Cultures, IC50 THP-1
Protocol: as §1, §2, §3, §4

[9] = test system: human prostate adenocarcinoma PC-3 cells; experiment: MTT cytotoxicity assay, PC-3; settings: Homo sapiens, MTT, 72 h, n = 3, ± SD, read-out: Adhesive Cell Cultures, IC50 PC-3
Protocol: as §1, §2, §3, §4

[10] = test system: human embryonic fibroblasts HEF; experiment: MTT cytotoxicity assay, HEF (control cells); settings: Fibroblast, 72 h, n = 3, ± SD, read-out: Adhesive Cell Cultures, IC50 HEF
Protocol: as §1, §2, §3, §4

C=C1C2=C(C(=O)N1OC)[C@@H](NCCO)[C@@](C)(O)[C@H](CCCCC)O2 [Compound 2, (2S,3R,4R)-3-Hydroxy-4-[(2-hydroxyethyl)amino]-6-methoxy-3-methyl-7-methylene-2-pentyl-3,4,6,7-tetra-hydropyrano[2,3-c]pyrrol-5(2H)-one]
IC50 [1]: 2.05 ± 0.35 µM | IC50 [2]: 3.23 ± 1.07 µM | IC50 [3]: 2.6 ± 0.99 µM | IC50 [4]: 4.63 ± 0.04 µM | IC50 [5]: 15.1 ± 0.45 µM | IC50 [6]: 3.5 ± 0.82 µM | IC50 [7]: 5.5 ± 0.57 µM | IC50 [8]: 2.3 ± 0.57 µM | IC50 [9]: 5.55 ± 1.48 µM | IC50 [10]: 16.2 ± 0.26 µM

C=C1C2=C(C(=O)N1OC)[C@@H](NCc1ccccc1)[C@@](C)(O)[C@H](CCCCC)O2 [Compound 5, (2S,3R,4R)-4-(benzylamino)-3-hydroxy-6-methoxy-3-methyl-7-methylene-2-pentyl-3,4,6,7-tetrahydro-pyrano[2,3-c]pyrrol-5(2H)-one]
IC50 [2]: 35.7 ± 0.65 µM | IC50 [3]: 10.1 ± 0.44 µM | IC50 [4]: 12.9 ± 0.3 µM | IC50 [5]: 37.5 ± 1.33 µM | IC50 [6]: 16 ± 0.16 µM | IC50 [7]: 14.1 ± 0.48 µM | IC50 [8]: 15.1 ± 0.36 µM | IC50 [9]: 24.7 ± 1.24 µM | IC50 [10]: 53.1 ± 1.06 µM

C=C1C2=C(C(=O)N1OC)[C@@H](N1CCC(O)CC1)[C@@](C)(O)[C@H](CCCCC)O2 [Compound 8, (2S,3R,4R)-3-Hydroxy-4-(4-hydroxypiperidin-1-yl)-6-methoxy-3-methyl-7-methylene-2-pentyl-3,4,6,7-tetra-hydropyrano[2,3-c]pyrrol-5(2H)-one]
IC50 [1]: 1.87 ± 0.25 µM | IC50 [2]: 3.2 ± 0.52 µM | IC50 [3]: 2.6 ± 1.13 µM | IC50 [4]: 2.64 ± 0.05 µM | IC50 [5]: 9.4 ± 0.14 µM | IC50 [6]: 1.4 ± 0.28 µM | IC50 [7]: 4.9 ± 2.4 µM | IC50 [8]: 2.1 ± 0.28 µM | IC50 [9]: 4.53 ± 0.4 µM | IC50 [10]: 6.7 ± 0.23 µM

C=C1C2=C(C(=O)N1OC)[C@@H](NCCCCO)[C@@](C)(O)[C@H](CCCCC)O2 [Compound 3, (2S,3R,4R)-3-Hydroxy-4-[(4-hydroxybutyl)amino]-6-methoxy-3-methyl-7-methylene-2-pentyl-3,4,6,7-tetra-hydropyrano[2,3-c]pyrrol-5(2H)-one]
IC50 [1]: 1.95 ± 0.21 µM | IC50 [2]: 3.05 ± 1.2 µM | IC50 [3]: 3.15 ± 1.77 µM | IC50 [4]: 2.9 ± 0.98 µM | IC50 [6]: 2.7 ± 0.28 µM | IC50 [7]: 6.7 ± 0.28 µM | IC50 [8]: 2.6 ± 0.57 µM | IC50 [9]: 4.5 ± 1.56 µM | IC50 [10]: 15.2 ± 1.02 µM

C=C1C2=C(C(=O)N1OC)[C@@H](NC)[C@@](C)(O)[C@H](CCCCC)O2 [Compound 1, (2S,3R,4R)-3-Hydroxy-6-methoxy-3-methyl-4-(methylamino)-7-methylene-2-pentyl-3,4,6,7-tetrahydro-pyrano[2,3-c]pyrrol-5(2H)-one]
IC50 [1]: 1.35 ± 0.69 µM | IC50 [2]: 4.1 ± 0.44 µM | IC50 [3]: 2.75 ± 0.21 µM | IC50 [4]: 3.68 ± 0.81 µM | IC50 [5]: 12.7 ± 0.4 µM | IC50 [6]: 3.97 ± 0.68 µM | IC50 [7]: 3.25 ± 0.64 µM | IC50 [8]: 2.25 ± 0.21 µM | IC50 [9]: 3.35 ± 0.92 µM | IC50 [10]: 22.3 ± 0.44 µM

C=CCN[C@@H]1C2=C(O[C@@H](CCCCC)[C@]1(C)O)C(=C)N(OC)C2=O [Compound 4, (2S,3R,4R)-4-(Allylamino)-3-hydroxy-6-methoxy-3-methyl-7-methylene-2-pentyl-3,4,6,7-tetrahydropyrano-[2,3-c]pyrrol-5(2H)-one]
IC50 [1]: 2.35 ± 0.09 µM | IC50 [2]: 4.13 ± 0.23 µM | IC50 [3]: 3.27 ± 0.07 µM | IC50 [4]: 8.4 ± 0.24 µM | IC50 [5]: 12.7 ± 0.27 µM | IC50 [6]: 6 ± 0.13 µM | IC50 [7]: 10.5 ± 0.41 µM | IC50 [8]: 3.32 ± 0.1 µM | IC50 [9]: 6.37 ± 0.18 µM | IC50 [10]: 5.03 ± 0.15 µM

C=C1C2=C(C(=O)N1OC)[C@H](O)[C@@](C)(O)[C@H](CCCCC)O2 [PPA, phaeosphaeride A]
IC50 [1]: 6.5 ± 0.3 µM | IC50 [2]: 20.3 ± 0.8 µM | IC50 [3]: 9.7 ± 0.42 µM | IC50 [4]: 24.2 ± 0.75 µM | IC50 [5]: 41.1 ± 2.6 µM | IC50 [6]: 9.15 ± 0.64 µM | IC50 [7]: 20.5 ± 1.46 µM | IC50 [8]: 19.1 ± 0.45 µM | IC50 [9]: 32.1 ± 0.77 µM | IC50 [10]: 19.1 ± 0.25 µM

C=C1C2=C(C(=O)N1OC)[C@@H](N1CCC(N3CCCC3)CC1)[C@@](C)(O)[C@H](CCCCC)O2 [Compound 7, (2S,3R,4R)-3-Hydroxy-6-methoxy-3-methyl-7-methylene-2-pentyl-4-(4-pyrrolidin-1-ylpiperidin-1-yl)-3,4,6,7-tetrahydropyrano[2,3-c]pyrrol-5(2H)-one]
IC50 [1]: 2 ± 0.26 µM | IC50 [2]: 1.8 ± 0.44 µM | IC50 [3]: 2.73 ± 1.53 µM | IC50 [4]: 1.65 ± 0.63 µM | IC50 [5]: 12.2 ± 0.2 µM | IC50 [6]: 3.35 ± 1.48 µM | IC50 [7]: 6.03 ± 0.91 µM | IC50 [8]: 3.45 ± 0.21 µM | IC50 [9]: 3.65 ± 0.64 µM | IC50 [10]: 22.3 ± 0.33 µM
